According to ChEMBL document CHEMBL5614382, “Discovery of a new 1-(phenylsulfonyl)-1H-indole derivative targeting the EphA2 receptor with antiproliferative activity on U251 glioblastoma cell line” (Eur J Med Chem, 2024):

What was measured:
Ephrin type-A receptor 6 = target: T1, Ephrin type-A receptor 6 (Mus musculus, UniProt Q62413); assay: Displacement of biotinylated Fc-tagged ephrin-A1 from recombinant N/C-terminal 6-his tagged mouse EphA6 (Ser28 to Gln546 residues) preincubated for 1 hr followed by ephrin-A1-Fc addition and measured after 4 to 5 hrs by ELISA assay
T1 sequence (Q62413 whole entry): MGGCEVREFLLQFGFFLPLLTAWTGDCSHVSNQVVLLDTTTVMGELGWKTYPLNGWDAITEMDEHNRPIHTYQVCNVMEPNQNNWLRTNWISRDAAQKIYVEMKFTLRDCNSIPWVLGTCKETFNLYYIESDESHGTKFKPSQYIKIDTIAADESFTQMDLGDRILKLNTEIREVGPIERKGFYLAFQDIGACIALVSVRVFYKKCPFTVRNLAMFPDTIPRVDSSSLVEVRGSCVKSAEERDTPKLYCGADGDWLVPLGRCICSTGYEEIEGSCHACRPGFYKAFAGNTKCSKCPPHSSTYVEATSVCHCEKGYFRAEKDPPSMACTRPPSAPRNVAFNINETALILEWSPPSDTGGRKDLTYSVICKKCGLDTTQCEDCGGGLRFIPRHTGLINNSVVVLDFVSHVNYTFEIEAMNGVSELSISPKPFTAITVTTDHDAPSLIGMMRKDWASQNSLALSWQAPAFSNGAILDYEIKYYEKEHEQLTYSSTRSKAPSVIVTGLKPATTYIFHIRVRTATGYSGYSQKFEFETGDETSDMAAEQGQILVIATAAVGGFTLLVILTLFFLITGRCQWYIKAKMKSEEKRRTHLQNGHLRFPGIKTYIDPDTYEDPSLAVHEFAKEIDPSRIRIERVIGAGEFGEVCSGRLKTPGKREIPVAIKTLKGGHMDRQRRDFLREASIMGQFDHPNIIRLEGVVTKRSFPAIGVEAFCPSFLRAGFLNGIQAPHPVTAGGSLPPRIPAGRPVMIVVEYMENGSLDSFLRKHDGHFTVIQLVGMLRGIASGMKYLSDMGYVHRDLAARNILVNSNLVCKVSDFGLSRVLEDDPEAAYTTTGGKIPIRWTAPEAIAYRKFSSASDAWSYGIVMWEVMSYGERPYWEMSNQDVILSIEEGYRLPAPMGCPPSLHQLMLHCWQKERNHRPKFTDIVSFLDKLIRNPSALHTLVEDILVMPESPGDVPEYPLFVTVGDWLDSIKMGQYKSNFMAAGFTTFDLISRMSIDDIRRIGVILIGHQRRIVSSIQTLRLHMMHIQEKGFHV

Ephrin type-B receptor 3 = target: T2, Ephrin type-B receptor 3 (Mus musculus, UniProt P54754); assay: Displacement of biotinylated Fc-tagged ephrin-B1 from recombinant mouse EphB3 (Leu 30 to Thru537 residues) preincubated for 1 hr followed by ephrin-B1-Fc addition and measured after 4 to 5 hrs by ELISA assay
T2 sequence (P54754 whole entry): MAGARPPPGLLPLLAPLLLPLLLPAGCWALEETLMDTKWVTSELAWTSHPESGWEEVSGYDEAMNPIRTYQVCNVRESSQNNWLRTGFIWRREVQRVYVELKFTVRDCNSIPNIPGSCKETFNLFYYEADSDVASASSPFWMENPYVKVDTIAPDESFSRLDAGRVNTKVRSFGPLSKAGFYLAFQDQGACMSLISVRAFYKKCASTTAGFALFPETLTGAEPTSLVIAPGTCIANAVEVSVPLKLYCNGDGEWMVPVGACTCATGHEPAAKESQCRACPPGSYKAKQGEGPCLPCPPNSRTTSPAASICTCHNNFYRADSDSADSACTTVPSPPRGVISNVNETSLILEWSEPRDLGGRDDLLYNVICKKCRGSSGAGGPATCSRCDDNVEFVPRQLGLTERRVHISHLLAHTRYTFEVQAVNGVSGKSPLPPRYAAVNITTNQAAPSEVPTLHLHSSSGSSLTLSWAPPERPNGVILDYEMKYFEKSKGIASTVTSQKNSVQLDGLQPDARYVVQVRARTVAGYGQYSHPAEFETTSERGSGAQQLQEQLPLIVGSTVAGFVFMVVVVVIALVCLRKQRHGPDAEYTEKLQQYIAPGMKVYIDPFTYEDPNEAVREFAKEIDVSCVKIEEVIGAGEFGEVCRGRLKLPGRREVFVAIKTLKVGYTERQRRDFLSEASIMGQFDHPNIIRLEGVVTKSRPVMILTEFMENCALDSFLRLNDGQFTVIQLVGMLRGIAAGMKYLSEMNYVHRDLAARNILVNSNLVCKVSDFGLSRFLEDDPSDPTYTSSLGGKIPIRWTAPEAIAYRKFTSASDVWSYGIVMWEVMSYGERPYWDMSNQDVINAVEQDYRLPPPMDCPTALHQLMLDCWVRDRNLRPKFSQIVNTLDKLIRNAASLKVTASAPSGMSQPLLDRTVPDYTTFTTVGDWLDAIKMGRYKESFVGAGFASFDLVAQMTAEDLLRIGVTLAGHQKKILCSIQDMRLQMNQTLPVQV

| Compound | IC50 (Ephrin type-A receptor 6) [µM] | IC50 (Ephrin type-B receptor 3) [µM] |
| --- | --- | --- |
| C[C@H](CCC(=O)N[C@H](CC(=O)O)Cc1c[nH]c2ccccc12)[C@H]1CC[C@H]2[C@@H]3CC=C4C[C@@H](O)CC[C@]4(C)[C@H]3CC[C@]12C | 2.9 | 9.8 |
| C[C@H](CCC(=O)N[C@H](CC(=O)O)Cc1cn(S(=O)(=O)c2ccc(C(F)(F)F)cc2)c2ccccc12)[C@H]1CC[C@H]2[C@@H]3CC=C4C[C@@H](O)CC[C@]4(C)[C@H]3CC[C@]12C | 10 | > 30 |
| C[C@H](CCC(=O)N[C@H](CC(=O)O)Cc1cn(S(=O)(=O)c2ccccc2)c2ccccc12)[C@H]1CC[C@H]2[C@@H]3CC=C4C[C@@H](O)CC[C@]4(C)[C@H]3CC[C@]12C | 11 | > 30 |
